From PubChem BioAssay (NCI)
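Five concentrations, 48 hours, 96-well plates. GI50 is the concentration that inhibits growth by half. TGI: total growth inhibition.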

Tests used:
Assay in all cases: NCI-60 cell line screen, 48 h
[1] = tested on: 786-0 renal
[2] = tested on: A498 renal
[3] = tested on: A549 NSCLC
[4] = tested on: ACHN renal
[5] = tested on: BT-549 breast
[6] = tested on: CAKI-1 renal
[7] = tested on: CCRF-CEM leukemia
[8] = tested on: COLO 205 colon
[9] = tested on: DU-145 prostate
[10] = tested on: EKVX NSCLC
[11] = tested on: HCC-2998 colon
[12] = tested on: HCT-116 colon
[13] = tested on: HCT-15 colon
[14] = tested on: HL-60(TB) leukemia
[15] = tested on: HOP-62 NSCLC
[16] = tested on: HOP-92 NSCLC
[17] = tested on: HS 578T breast
[18] = tested on: HT29 colon
[19] = tested on: IGROV1 ovarian
[20] = tested on: K-562 leukemia
[21] = tested on: KM12 colon
[22] = tested on: LOX IMVI melanoma
[23] = tested on: M14 melanoma
[24] = tested on: MCF7 breast
[25] = tested on: MDA-MB-231 breast
[26] = tested on: MDA-MB-435
[27] = tested on: MOLT-4 leukemia
[28] = tested on: NCI-H226 lung
[29] = tested on: NCI-H23 lung

## C=C(C)C(=O)Oc1ccc(N=Nc2ccc(C)cc2)ccc1=O
[1]
  GI50: 4.96 µM
  TGI: 17.8 µM
[2]
  GI50: 3.72 µM
  TGI: 14.6 µM
[3]
  GI50: 3.81 µM
  TGI: 18.3 µM
[4]
  GI50: 3.96 µM
  TGI: 15.8 µM
[5]
  GI50: 6.63 µM
  TGI: 21.3 µM
[6]
  GI50: 2260 nM
  TGI: 5.6 µM
[7]
  GI50: 2240 nM
  TGI: 9.36 µM
[8]
  GI50: 3.58 µM
  TGI: 14.6 µM
[9]
  GI50: 4.36 µM
  TGI: 15.8 µM
[10]
  GI50: 2320 nM
  TGI: 8.76 µM
[11]
  GI50: 3.74 µM
  TGI: 14 µM
[12]
  GI50: 2980 nM
  TGI: 10.5 µM
[13]
  GI50: 3.55 µM
  TGI: 18.5 µM
[14]
  GI50: 2390 nM
  TGI: 7.04 µM
[15]
  GI50: 3.78 µM
  TGI: 14.9 µM
[16]
  GI50: 3.64 µM
  TGI: 16.1 µM
[17]
  GI50: 4.33 µM
  TGI: 24.3 µM
[18]
  GI50: 4.28 µM
  TGI: 15.1 µM
[19]
  GI50: 2540 nM
  TGI: 9.15 µM
[20]
  GI50: 3.36 µM
  TGI: 13.6 µM
[21]
  GI50: 3.51 µM
  TGI: 13.5 µM
[22]
  GI50: 2720 nM
  TGI: 11.4 µM
[23]
  GI50: 3.21 µM
  TGI: 12.7 µM
[24]
  GI50: 3.66 µM
  TGI: 14.7 µM
[25]
  GI50: 4.84 µM
  TGI: 22 µM
[26]
  GI50: 2770 nM
  TGI: 11.2 µM
[27]
  GI50: 2570 nM
  TGI: 8.18 µM
[28]
  GI50: 3.57 µM
  TGI: 18.6 µM
[29]
  GI50: 4.52 µM
